Source: patent US11357748B2, “Methods for treating mendelian disorders of the epigenetic machinery” (THE JOHNS HOPKINS UNIVERSITY, priority 2014, dated 2022)

System: H3K4 trimethylation machinery (H3K4me3 indicator)
Assay: H3K4 trimethylation (H3K4me3) indicator reporter allele, FACS
Format: cell-based
Source text: An H3K4 trimethylation reporter was also created (FIG. 5B). This reporter is based on the H3 tail on one end and the TBP associated factor III (TAFIII) […] on the other end; the TAFIII […] only identifies and binds to trimethylated K4 on H3. When the H3K4 site gets trimethylated, the TAFIII […] can bind to the modified H3 tail and bring the two parts of the separated GFP in close proximity. The activity of the epigenetic modification system can be quantified through fluorescence.
Epigenetic reporter alleles were synthesized (OriGene, Rockville, Md.) using published sequences for component elements (Baird et al. (1999) Proc. Natl. Acad. Sci. 96:11241-6; Souslova et al. (2007) BMC Biotechnol. 7:37). Single nucleotide mutations were created using the QuickChange Lightening kit (Agilent Technologies Inc, Santa Clara, Calif.). […] FACS data were analyzed using FlowJo (Tree Star Inc, Ashland, Oreg.). […]
Epigenetic reporter systems were created that monitor either H4 acetylation or H3K4 trimethylation machinery activity in an effort to determine whether there is an ongoing activity deficiency in cells from Kmt2d^+/βGeo mice (FIG. 18A). Both reporter alleles encode halves of green fluorescent protein separated by a flexible linker region (Baird et al. (1999) Proc. Natl. Acad. Sci. 96: 11241-6) with a histone tail and a histone reader at the N- and C-termini, respectively. […]

For `CC(C)[C@H](C(=O)Nc1ccc(C(=O)NO)cc1)c1ccccc1` [AR-42, (S)—N-hydroxy-4-(3-methyl-2-phenylbutanamido)benzamide], the “H3K4me3 indicator response to increasing levels of drug” value (FIG. 18F) was “dose dependent response” and the cell numbers (at higher doses, FIG. 18F (red line)) was “decreased cell numbers”.
